Assays:
[1] = target: Acetylcholinesterase (Homo sapiens, UniProt P22303); assay type: functional
[2] = target: T1, Alpha-2A adrenergic receptor (Homo sapiens, UniProt P08913)
T1 sequence (P08913 whole entry): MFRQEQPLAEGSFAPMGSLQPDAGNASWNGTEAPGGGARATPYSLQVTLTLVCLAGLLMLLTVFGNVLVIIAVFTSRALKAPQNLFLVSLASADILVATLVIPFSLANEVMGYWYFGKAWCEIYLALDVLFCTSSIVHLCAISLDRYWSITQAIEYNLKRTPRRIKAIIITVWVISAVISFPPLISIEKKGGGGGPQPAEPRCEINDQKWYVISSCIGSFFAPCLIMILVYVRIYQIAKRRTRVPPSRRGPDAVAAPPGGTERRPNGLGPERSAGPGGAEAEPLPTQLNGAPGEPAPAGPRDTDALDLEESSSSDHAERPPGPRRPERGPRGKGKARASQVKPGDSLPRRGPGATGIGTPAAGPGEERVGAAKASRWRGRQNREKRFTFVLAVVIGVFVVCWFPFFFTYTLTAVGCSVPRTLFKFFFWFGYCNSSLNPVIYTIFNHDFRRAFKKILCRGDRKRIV

[3] = target: T2, Muscarinic acetylcholine receptor M2 (Homo sapiens, UniProt P08172)
T2 sequence (P08172 whole entry): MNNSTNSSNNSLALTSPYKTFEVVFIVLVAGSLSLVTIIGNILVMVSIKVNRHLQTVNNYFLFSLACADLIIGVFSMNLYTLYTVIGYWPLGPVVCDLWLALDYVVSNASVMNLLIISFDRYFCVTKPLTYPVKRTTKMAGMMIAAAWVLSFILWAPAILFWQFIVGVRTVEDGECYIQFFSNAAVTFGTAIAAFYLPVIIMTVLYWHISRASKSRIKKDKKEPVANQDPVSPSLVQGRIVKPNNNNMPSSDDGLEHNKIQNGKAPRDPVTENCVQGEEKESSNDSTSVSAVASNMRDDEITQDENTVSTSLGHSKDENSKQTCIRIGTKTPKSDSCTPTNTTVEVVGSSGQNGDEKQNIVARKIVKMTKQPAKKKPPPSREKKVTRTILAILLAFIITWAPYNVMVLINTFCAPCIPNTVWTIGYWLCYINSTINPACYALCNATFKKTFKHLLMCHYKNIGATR

[4] = target: Prothrombin (Homo sapiens, UniProt P00734); assay type: functional
[5] = target: Histamine H3 receptor (Homo sapiens, UniProt Q9Y5N1)
[6] = target: T3, 5-hydroxytryptamine receptor 1A (Homo sapiens, UniProt P08908)
T3 sequence (P08908 whole entry): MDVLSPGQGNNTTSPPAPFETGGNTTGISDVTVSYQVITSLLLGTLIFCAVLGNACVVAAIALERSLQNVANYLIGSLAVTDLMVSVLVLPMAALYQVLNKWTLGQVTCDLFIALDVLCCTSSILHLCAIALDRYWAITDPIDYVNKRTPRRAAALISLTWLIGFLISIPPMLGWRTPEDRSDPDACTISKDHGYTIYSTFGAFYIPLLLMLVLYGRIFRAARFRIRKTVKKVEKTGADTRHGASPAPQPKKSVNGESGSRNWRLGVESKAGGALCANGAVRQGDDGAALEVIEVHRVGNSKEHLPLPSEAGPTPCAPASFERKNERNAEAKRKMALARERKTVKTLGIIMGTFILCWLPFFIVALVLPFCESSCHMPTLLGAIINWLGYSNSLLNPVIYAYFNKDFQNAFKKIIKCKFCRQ

[7] = target: 5-hydroxytryptamine receptor 2B (Homo sapiens, UniProt P41595); assay type: functional, cell-based
[8] = target: Voltage-gated inwardly rectifying potassium channel KCNH2 (Homo sapiens, UniProt Q12809); assay type: functional
[9] = target: T4, Amine oxidase [flavin-containing] A (Homo sapiens, UniProt P21397); assay type: functional
T4 sequence (P21397 whole entry): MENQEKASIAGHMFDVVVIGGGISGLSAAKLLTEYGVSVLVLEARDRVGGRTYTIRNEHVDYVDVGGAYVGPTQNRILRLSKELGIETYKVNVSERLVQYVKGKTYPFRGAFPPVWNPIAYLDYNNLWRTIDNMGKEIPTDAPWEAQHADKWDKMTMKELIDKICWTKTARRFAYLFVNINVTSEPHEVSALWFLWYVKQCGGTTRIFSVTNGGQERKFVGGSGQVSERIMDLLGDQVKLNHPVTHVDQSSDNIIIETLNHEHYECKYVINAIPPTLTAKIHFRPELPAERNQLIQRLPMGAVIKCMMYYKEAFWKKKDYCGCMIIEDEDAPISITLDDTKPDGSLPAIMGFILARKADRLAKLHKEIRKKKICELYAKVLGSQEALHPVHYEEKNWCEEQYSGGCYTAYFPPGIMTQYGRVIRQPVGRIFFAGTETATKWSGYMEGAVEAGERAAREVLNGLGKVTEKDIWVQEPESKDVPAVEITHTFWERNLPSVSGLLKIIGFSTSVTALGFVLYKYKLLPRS

[10] = target: cGMP-inhibited 3',5'-cyclic phosphodiesterase 3A (Homo sapiens, UniProt Q14432); assay type: functional
[11] = target: 3',5'-cyclic-AMP phosphodiesterase 4A (Homo sapiens, UniProt P27815); assay type: functional
[12] = target: Sodium-dependent dopamine transporter (Homo sapiens, UniProt Q01959)
[13] = target: T5, Thromboxane A2 receptor (Homo sapiens, UniProt P21731); assay type: functional, cell-based
T5 sequence (P21731 whole entry): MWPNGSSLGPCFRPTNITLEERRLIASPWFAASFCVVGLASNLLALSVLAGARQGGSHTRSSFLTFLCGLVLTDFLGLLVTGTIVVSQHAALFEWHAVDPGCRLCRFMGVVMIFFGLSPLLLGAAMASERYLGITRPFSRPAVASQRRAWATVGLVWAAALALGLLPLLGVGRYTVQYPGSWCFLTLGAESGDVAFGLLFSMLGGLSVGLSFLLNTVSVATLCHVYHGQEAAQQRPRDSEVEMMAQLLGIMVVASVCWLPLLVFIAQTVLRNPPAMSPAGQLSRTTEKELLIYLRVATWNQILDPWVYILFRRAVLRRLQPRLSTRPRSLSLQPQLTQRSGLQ

[14] = target: T5, Thromboxane A2 receptor; assay type: functional, cell-based; remark: listed apart in the source
Further: assay procedure not described here.

Voltage-gated inwardly rectifying potassium channel KCNH2, sequence (Q12809 whole entry): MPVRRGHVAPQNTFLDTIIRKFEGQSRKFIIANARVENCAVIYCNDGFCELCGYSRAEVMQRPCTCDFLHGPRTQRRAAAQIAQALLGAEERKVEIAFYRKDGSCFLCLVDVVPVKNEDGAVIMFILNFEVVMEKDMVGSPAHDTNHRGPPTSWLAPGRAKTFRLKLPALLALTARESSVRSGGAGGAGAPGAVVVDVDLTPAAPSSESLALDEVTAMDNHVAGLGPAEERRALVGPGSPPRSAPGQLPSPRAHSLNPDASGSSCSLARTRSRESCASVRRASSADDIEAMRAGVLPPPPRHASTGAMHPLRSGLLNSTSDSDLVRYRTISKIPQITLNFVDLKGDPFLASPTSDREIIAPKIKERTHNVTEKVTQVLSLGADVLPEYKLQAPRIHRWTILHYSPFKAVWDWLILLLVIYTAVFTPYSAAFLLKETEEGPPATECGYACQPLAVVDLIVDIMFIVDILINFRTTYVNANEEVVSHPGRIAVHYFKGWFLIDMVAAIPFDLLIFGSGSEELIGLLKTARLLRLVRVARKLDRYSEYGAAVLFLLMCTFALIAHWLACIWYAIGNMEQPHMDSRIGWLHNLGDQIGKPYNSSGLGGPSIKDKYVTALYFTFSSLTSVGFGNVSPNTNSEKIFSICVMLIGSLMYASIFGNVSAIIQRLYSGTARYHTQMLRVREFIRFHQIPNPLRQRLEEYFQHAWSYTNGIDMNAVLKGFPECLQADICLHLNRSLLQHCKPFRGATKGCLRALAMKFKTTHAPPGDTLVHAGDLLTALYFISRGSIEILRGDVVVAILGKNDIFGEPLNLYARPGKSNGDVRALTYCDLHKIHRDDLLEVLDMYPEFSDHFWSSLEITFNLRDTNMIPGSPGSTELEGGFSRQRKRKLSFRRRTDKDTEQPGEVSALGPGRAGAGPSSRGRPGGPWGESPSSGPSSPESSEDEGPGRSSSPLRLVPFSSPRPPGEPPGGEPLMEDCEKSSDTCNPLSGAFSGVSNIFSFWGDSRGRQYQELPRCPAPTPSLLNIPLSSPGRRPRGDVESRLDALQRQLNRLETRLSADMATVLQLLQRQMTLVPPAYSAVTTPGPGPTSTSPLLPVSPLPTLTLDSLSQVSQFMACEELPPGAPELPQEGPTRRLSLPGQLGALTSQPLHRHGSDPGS
Histamine H3 receptor, sequence (Q9Y5N1 whole entry): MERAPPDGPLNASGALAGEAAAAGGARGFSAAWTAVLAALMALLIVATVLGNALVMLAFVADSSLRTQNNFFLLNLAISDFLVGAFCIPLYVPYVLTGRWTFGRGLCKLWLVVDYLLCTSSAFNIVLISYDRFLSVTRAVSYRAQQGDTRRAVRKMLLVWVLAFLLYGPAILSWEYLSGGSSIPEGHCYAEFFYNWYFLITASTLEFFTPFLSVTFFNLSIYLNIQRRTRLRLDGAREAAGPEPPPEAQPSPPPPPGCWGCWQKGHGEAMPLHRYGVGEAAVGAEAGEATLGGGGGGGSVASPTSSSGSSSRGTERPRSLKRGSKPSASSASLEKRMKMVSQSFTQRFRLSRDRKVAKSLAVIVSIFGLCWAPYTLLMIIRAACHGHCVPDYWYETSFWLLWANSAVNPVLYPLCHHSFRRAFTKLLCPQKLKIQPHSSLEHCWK
3',5'-cyclic-AMP phosphodiesterase 4A, sequence (P27815 whole entry): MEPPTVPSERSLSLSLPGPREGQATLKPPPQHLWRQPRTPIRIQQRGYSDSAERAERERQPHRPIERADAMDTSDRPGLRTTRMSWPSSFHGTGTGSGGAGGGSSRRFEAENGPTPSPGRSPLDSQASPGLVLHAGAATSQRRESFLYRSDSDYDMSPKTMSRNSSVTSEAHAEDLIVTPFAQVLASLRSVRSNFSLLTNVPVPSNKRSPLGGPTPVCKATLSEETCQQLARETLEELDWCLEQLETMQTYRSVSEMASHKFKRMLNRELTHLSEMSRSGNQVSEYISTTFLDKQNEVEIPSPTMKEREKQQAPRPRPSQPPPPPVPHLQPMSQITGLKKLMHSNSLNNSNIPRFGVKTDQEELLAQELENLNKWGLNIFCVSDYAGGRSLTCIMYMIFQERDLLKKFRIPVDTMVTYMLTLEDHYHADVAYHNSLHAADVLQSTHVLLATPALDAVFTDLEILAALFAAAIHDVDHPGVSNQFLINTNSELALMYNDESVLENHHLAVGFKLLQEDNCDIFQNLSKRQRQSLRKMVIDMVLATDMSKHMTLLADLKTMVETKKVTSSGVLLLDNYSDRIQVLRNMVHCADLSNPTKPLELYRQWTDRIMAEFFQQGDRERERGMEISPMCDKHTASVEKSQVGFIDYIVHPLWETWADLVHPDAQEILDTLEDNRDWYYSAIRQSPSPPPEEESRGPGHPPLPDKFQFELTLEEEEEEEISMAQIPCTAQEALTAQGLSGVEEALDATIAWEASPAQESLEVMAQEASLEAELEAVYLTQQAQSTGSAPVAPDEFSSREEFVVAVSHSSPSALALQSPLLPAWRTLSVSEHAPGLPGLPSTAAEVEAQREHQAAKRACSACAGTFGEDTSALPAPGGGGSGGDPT
Acetylcholinesterase, sequence (P22303 whole entry): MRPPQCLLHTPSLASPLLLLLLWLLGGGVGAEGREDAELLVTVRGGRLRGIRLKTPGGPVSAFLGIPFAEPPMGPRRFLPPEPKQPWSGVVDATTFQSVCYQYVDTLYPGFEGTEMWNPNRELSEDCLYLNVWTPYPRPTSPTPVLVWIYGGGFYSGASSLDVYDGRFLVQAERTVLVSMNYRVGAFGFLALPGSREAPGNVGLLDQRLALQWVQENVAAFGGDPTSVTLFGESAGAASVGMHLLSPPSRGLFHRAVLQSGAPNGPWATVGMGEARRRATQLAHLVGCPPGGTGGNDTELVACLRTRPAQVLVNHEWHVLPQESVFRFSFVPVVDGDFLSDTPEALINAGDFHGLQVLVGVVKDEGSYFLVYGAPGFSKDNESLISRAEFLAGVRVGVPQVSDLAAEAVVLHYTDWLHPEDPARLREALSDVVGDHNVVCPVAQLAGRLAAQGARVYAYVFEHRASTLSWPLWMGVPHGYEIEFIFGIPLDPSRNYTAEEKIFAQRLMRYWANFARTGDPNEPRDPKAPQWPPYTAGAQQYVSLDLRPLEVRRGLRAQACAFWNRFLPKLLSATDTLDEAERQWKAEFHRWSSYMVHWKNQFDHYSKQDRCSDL
5-hydroxytryptamine receptor 2B, sequence (P41595 whole entry): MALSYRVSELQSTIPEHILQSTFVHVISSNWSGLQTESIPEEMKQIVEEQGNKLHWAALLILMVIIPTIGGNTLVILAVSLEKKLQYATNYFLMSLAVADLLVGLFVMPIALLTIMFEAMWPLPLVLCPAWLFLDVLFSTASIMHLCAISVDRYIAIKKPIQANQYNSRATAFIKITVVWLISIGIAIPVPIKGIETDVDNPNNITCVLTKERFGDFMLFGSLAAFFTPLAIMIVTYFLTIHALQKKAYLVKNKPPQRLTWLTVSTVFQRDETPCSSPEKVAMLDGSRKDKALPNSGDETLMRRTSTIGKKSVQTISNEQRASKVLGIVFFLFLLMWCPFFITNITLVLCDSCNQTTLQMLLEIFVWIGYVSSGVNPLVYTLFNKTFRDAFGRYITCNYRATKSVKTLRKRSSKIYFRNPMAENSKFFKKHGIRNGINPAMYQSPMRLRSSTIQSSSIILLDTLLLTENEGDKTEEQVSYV
cGMP-inhibited 3',5'-cyclic phosphodiesterase 3A, sequence (Q14432 whole entry): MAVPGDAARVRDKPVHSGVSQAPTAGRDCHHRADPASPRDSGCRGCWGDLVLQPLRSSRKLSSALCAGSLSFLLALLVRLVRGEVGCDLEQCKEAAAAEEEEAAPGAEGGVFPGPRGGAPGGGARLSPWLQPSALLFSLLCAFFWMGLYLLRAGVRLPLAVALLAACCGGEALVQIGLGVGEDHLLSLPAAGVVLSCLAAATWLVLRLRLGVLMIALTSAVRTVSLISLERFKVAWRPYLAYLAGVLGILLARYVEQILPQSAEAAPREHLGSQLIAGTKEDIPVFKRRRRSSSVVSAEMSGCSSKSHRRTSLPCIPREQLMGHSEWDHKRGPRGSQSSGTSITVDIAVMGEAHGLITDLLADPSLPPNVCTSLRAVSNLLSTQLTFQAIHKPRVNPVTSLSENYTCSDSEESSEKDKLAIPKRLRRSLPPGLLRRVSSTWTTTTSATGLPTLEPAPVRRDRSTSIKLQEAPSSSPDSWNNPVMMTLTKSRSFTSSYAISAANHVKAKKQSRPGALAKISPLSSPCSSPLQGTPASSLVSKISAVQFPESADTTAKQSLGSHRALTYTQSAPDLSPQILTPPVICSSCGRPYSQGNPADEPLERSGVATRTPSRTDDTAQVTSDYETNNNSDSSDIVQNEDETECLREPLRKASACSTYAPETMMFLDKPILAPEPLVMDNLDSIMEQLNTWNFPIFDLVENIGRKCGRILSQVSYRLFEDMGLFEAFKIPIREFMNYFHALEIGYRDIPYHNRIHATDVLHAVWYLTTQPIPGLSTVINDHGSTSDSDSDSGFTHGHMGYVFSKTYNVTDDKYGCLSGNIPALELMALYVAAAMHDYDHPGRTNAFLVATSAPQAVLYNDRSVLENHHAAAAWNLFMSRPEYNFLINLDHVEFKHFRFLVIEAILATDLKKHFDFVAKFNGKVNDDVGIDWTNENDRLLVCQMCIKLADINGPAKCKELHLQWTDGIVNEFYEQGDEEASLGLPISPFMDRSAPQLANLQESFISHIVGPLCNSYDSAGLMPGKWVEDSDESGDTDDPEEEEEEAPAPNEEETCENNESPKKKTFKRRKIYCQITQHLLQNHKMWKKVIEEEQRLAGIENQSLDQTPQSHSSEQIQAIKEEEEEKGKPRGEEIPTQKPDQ

Row | Structure (SMILES) | AC50 [1] [µM] | AC50 [2] [µM] | AC50 [3] [µM] | AC50 [4] [µM] | AC50 [5] [µM] | AC50 [6] [µM] | AC50 [7] [µM] | AC50 [8] [µM] | AC50 [9] [µM] | AC50 [10] [µM] | AC50 [11] [µM] | AC50 [12] [µM] | AC50 [13] [µM] | AC50 [14] [µM]
1 | C=C1CC[C@H](O)C/C1=C/C=C1\CCC[C@]2(C)[C@@H]([C@H](C)CCCC(C)C)CC[C@@H]12 [CHOLECALCIFEROL] | > 30 | > 30 | > 30 | > 30 | > 30 | > 30 | > 30 | > 30 | > 30 | > 3 | > 30 | > 30 | > 30 | 22.4
2 | C[C@H](CCC(=O)O)[C@H]1CC[C@H]2[C@@H]3[C@H](O)C[C@@H]4C[C@H](O)CC[C@]4(C)[C@H]3C[C@H](O)[C@]12C [CHOLIC ACID] | > 30 | > 30 | > 30 | > 30 | > 30 | > 30 | > 30 | > 30 | > 30 | 13.8 | > 30 | > 30 | > 30 | > 30
3 | Cc1ncc2c(c1O)COC2c1ccc(Cl)cc1 (stereo not drawn) [CICLETANINE] | > 30 | > 30 | > 30 | > 30 | > 30 | > 30 | > 30 | > 30 | > 30 | > 30 | > 30 | > 30 | > 30 | > 30
4 | N#Cc1ccc(Oc2ccc3c(c2)COB3O)cc1 [CRISABOROLE] | > 30 | > 30 | > 30 | > 30 | > 30 | > 30 | > 30 | > 30 | > 30 | 14.7 | 0.337 | > 30 | > 30 | > 30
5 | CC(=O)O[C@]1(C(C)=O)CC[C@H]2[C@@H]3C=C(Cl)C4=CC(=O)[C@@H]5C[C@@H]5[C@]4(C)[C@H]3CC[C@@]21C [CYPROTERONE ACETATE] | > 30 | > 30 | 9.17 | > 30 | > 30 | > 30 | > 30 | > 30 | > 30 | > 30 | > 30 | > 30 | > 30 | > 3
6 | CC(=O)O[C@H]1Cc2ccccc2N(C(N)=O)c2ccccc21 [ESLICARBAZEPINE ACETATE] | > 30 | > 30 | > 30 | > 30 | > 30 | > 30 | > 30 | > 30 | > 30 | > 30 | > 30 | > 30 | > 30 | > 30
7 | C[C@@H]1C[C@H]2[C@@H]3C[C@H](F)C4=CC(=O)C=C[C@]4(C)[C@@]3(F)[C@@H](O)C[C@]2(C)[C@@]1(OC(=O)c1ccco1)C(=O)SCF [FLUTICASONE FUROATE] | > 30 | > 30 | > 30 | > 30 | > 30 | > 30 | > 30 | > 30 | > 30 | > 30 | > 30 | > 30 | > 30 | > 30
